Laboratory results published in US11059780B2, “Substituted pyrrolidine compound and use thereof” (Takeda Pharmaceutical Company Limited, priority 2017, dated 2021).

target: T1, human orexin type 2 receptor (hOX2R) (Homo sapiens, UniProt O43614); assay: Measurement of orexin type 2 receptor agonist activity (Fluo-4 calcium fluorescence, CHO cells forcibly expressing human OX2 receptor); format: cell-based; conditions: test compound 3 μM, DMSO = 0%, orexin A (human) 10 nM = 100%
T1 construct: expressed in transfected cells
T1 sequence (O43614 1-444): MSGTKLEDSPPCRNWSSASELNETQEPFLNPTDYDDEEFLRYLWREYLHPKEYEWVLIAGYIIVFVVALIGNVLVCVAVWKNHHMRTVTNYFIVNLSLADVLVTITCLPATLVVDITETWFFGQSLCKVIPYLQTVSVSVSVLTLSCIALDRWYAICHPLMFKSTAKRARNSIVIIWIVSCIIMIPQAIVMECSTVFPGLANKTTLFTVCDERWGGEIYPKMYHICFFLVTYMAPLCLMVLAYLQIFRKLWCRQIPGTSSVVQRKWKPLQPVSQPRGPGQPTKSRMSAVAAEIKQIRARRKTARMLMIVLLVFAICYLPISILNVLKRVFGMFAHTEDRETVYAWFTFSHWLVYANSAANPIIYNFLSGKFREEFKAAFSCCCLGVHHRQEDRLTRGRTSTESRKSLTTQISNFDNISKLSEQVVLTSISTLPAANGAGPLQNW
Source text: Experimental Example 1: Obtainment of Cell Stably Expressing Human Orexin Type 2 Receptor (hOX2R)
To obtain a cell clone stably expressing human orexin type 2 receptor, human orexin type 2 receptor cDNA was inserted into pcDNA3.1(+) plasmid vector (Invitrogen), and a plasmid DNA for expression of human orexin type 2 receptor (pcDNA3.1(+)/hOX2R) was cloned. The plasmid DNA was introduced into CHO-dhfr cell by an electroporation method, and human orexin type 2 receptor expressing clone cells were obtained by limiting dilution method by using G418 drug resistance as a selection marker.
Experimental Example 2: Measurement of Orexin Type 2 Receptor Agonist Activity
CHO cells forcibly expressing human OX2 receptor were seeded in each well of 384 well black transparent bottom plate (BD Falcon) at 7,500 cells/well, and cultured for one day in a 5% CO2 incubator at 37° C. After removal of the medium in the cell plate, assay buffer A containing a calcium indicator (HBSS (Life Technologies), 20 mM HEPES (Life Technologies), 0.1% BSA (Wako Pure Chemical Industries, Ltd.), 2.5 μg/mL Fluo-4 AM (DOJINDO Chemical), 0.08% Pluronic F127 (DOJINDO Chemical), 1.25 mM probenecid (DOJINDO Chemical)) was added at 30 μL/well. The plate was stood for 30 min in a 5% CO2 incubator at 37° C., and further stood at room temperature for 30 min. A test compound prepared by diluting with assay buffer B (HBSS, 20 mM HEPES, 0.1% BSA) was added at 10 μL/well, and the fluorescence value was measured by FDSSpCELL (Hamamatsu Photonics K.K.) every one sec for 1 min, and thereafter every two sec for 1 min 40 sec. The activity (%) of the test compound was calculated assuming that variation in the fluorescence value when DMSO was added instead of the test compound was 0% […], and variation in the fluorescence value when orexin A (human) (PEPTIDE INSTITUTE, INC.) was added at the final concentration of 10 nM was 100% […]. The activity of each compound at the concentration of 3 μM was shown below.

With `COc1ccccc1C1CCCN1S(=O)(=O)Cc1cccc(O[C@@H]2CN(C(=O)c3cc(C)ccc3C)C[C@H]2OC)c1` (relative stereo) [Example 83, trans-(2,5-dimethylphenyl)(3-methoxy-4-(3-(((2-(2-methoxyphenyl)pyrrolidin-1-yl)sulfonyl)methyl)phenoxy)pyrrolidin-1-yl)methanone] as the compound, how does the “OX2R agonist activity (3 μM, %)” value read?
Its value is 75%.

For `CO[C@@H]1CN(C(=O)c2cc(C)ccc2C)C[C@H]1Oc1ccc(F)c(CS(=O)(=O)N2CCCC2c2ccccn2)c1` (relative stereo) [Example 87, trans-(2,5-dimethylphenyl)(3-(4-fluoro-3-(((2-(pyridin-2-yl)pyrrolidin-1-yl)sulfonyl)methyl)phenoxy)-4-methoxypyrrolidin-1-yl)methanone], which “OX2R agonist activity (3 μM, %)” value is on record?
The value was 67%.

With `CO[C@@H]1CN(C(=O)c2cc(C)ccc2C)C[C@H]1Oc1cccc(CS(=O)(=O)N2CCC23CN(C(C)=O)C3)c1` (relative stereo) [Example 90, trans-1-(1-((3-((1-(2,5-dimethylbenzoyl)-4-methoxypyrrolidin-3-yl)oxy)benzyl)sulfonyl)-1,6-diazaspiro[3.3]hept-6-yl)ethanone] as the compound, how does the “OX2R agonist activity (3 μM, %)” value read?
The value was 96%.

`CO[C@@H]1CN(C(=O)c2cc(C)ccc2C)C[C@H]1Oc1cc(F)cc(CS(=O)(=O)N2CCCC2c2ccccn2)c1` (relative stereo) [Example 91, trans-(2,5-dimethylphenyl)(3-(3-fluoro-5-(((2-(pyridin-2-yl)pyrrolidin-1-yl)sulfonyl)methyl)phenoxy)-4-methoxypyrrolidin-1-yl)methanone] was tested. Which “OX2R agonist activity (3 μM, %)” value did it give?
The value was 70%.

How did the “OX2R agonist activity (3 μM, %)” value turn out when `COc1cccc(OC)c1C(=O)N1C[C@@H](OC)[C@H](Oc2cccc(CS(=O)(=O)N3CCCC3c3ccccn3)c2)C1` (relative stereo) [Example 100, trans-(2,6-dimethoxyphenyl)(3-methoxy-4-(3-(((2-(pyridin-2-yl)pyrrolidin-1-yl)sulfonyl)methyl)phenoxy)pyrrolidin-1-yl)methanone] was run?
The value was 93%.

With `COc1ccc(Cl)cc1C(=O)N1C[C@@H](OC)[C@H](Oc2cccc(CS(=O)(=O)N3CCCC3c3ccccn3)c2)C1` (relative stereo) [Example 108, trans-(5-chloro-2-methoxyphenyl)(3-methoxy-4-(3-(((2-(pyridin-2-yl)pyrrolidin-1-yl)sulfonyl)methyl)phenoxy)pyrrolidin-1-yl)methanone] as the compound, how does the “OX2R agonist activity (3 μM, %)” value read?
The value was 74%.

Which “OX2R agonist activity (3 μM, %)” value does the source give for `CO[C@@H]1CN(C(=O)c2cc(C)ccc2C)C[C@H]1Oc1cccc(C(F)S(=O)(=O)N2CCCC2c2ccccn2)c1` (relative stereo) [Example 110, trans-(2,5-dimethylphenyl)(3-(3-(fluoro((2-(pyridin-2-yl)pyrrolidin-1-yl)sulfonyl)methyl)phenoxy)-4-methoxypyrrolidin-1-yl)methanone] here?
The value was 67%.

How did the “OX2R agonist activity (3 μM, %)” value turn out when `CO[C@@H]1CN(C(=O)c2cc(C)ccc2C)C[C@H]1Oc1cccc(CS(=O)(=O)N2CCCC2c2ccc(C)nc2)c1` (relative stereo) [Example 112, trans-(2,5-dimethylphenyl)(3-methoxy-4-(3-(((2-(6-methylpyridin-3-yl)pyrrolidin-1-yl)sulfonyl)methyl)phenoxy)pyrrolidin-1-yl)methanone] was run?
Its value is 77%.

How did the “OX2R agonist activity (3 μM, %)” value turn out when `CO[C@@H]1CN(C(=O)c2cc(C)ccc2C)C[C@H]1Oc1cccc(CS(=O)(=O)N2CCCC2c2cccnc2C)c1` (relative stereo) [Example 114, trans-(2,5-dimethylphenyl)(3-methoxy-4-(3-(((2-(2-methylpyridin-3-yl)pyrrolidin-1-yl)sulfonyl)methyl)phenoxy)pyrrolidin-1-yl)methanone] was run?
Its value is 100%.

For `COC1CN(C(=O)c2cc(C)ccc2C)CC1Oc1cc(NS(=O)(=O)N2C[C@@H]3C[C@H]3C2)cc(F)n1` (relative stereo) [Example 116, trans-N-(2-((1-(2,5-dimethylbenzoyl)-4-methoxypyrrolidin-3-yl)oxy)-6-fluoropyridin-4-yl)-3-azabicyclo[3.1.0]hexane-3-sulfonamide], which “OX2R agonist activity (3 μM, %)” value is on record?
The value was 68%.

How did the “OX2R agonist activity (3 μM, %)” value turn out when `COC1CN(C(=O)c2cc(C)ccc2C)CC1Oc1cc(NS(=O)(=O)N2C[C@@H]3C[C@H]3C2)cc(C)n1` (relative stereo) [Example 117, trans-N-(2-((1-(2,5-dimethylbenzoyl)-4-methoxypyrrolidin-3-yl)oxy)-6-methylpyridin-4-yl)-3-azabicyclo[3.1.0]hexane-3-sulfonamide] was run?
The value was 93%.

For `COc1cccc(C)c1C(=O)N1C[C@@H](OC)[C@H](Oc2cccc(CS(=O)(=O)N3CCCC3c3ccccn3)c2)C1` (relative stereo) [Example 119, trans-(2-methoxy-6-methylphenyl)(3-methoxy-4-(3-(((2-(pyridin-2-yl)pyrrolidin-1-yl)sulfonyl)methyl)phenoxy)pyrrolidin-1-yl)methanone], which “OX2R agonist activity (3 μM, %)” value is on record?
The value was 100%.

How did the “OX2R agonist activity (3 μM, %)” value turn out when `CO[C@@H]1CN(C(=O)c2cc(C)ccc2C)C[C@H]1Oc1cccc(CS(=O)(=O)N2CCCC2c2ccc(C)nc2C)c1` (relative stereo) [Example 123, trans-(2,5-dimethylphenyl)(3-(3-(((2-(2,6-dimethylpyridin-3-yl)pyrrolidin-1-yl)sulfonyl)methyl)phenoxy)-4-methoxypyrrolidin-1-yl)methanone] was run?
Its value is 102%.

With `CCc1cccc(C)c1C(=O)N1C[C@@H](OC)[C@H](Oc2cccc(CS(=O)(=O)N(C)C3CCOC(C)(C)C3)c2)C1` (relative stereo) [Example 140, trans-N-(2,2-dimethyltetrahydro-2H-pyran-4-yl)-1-(3-((1-(2-ethyl-6-methylbenzoyl)-4-methoxypyrrolidin-3-yl)oxy)phenyl)-N-methylmethanesulfonamide] as the compound, how does the “OX2R agonist activity (3 μM, %)” value read?
Its value is 109%.

Which “OX2R agonist activity (3 μM, %)” value does the source give for `COC1CN(C(=O)c2cc(C)ccc2C)CC1Oc1cccc(CS(=O)(=O)N(C)[C@@H]2CCOC[C@H]2F)c1` (relative stereo) [Example 142, trans-1-(3-((1-(2,5-dimethylbenzoyl)-4-methoxypyrrolidin-3-yl)oxy)phenyl)-N-(3-fluorotetrahydro-2H-pyran-4-yl)-N-methylmethanesulfonamide] here?
The value was 115%.

Which “OX2R agonist activity (3 μM, %)” value does the source give for `CO[C@@H]1CN(C(=O)c2cc(C)ccc2C)C[C@H]1Oc1cccc(C(C)S(=O)(=O)N(C)C2CCOCC2)c1` (relative stereo) [Example 143, trans-1-(3-((1-(2,5-dimethylbenzoyl)-4-methoxypyrrolidin-3-yl)oxy)phenyl)-N-methyl-N-(tetrahydro-2H-pyran-4-yl)ethanesulfonamide] here?
The value was 92%.

For `CO[C@@H]1CN(C(=O)C(F)(F)c2ccccc2)C[C@H]1Oc1cccc(CS(=O)(=O)N(C)C2CCOCC2)c1` (relative stereo) [Example 145, trans-1-(3-((1-(difluoro(phenyl)acetyl)-4-methoxypyrrolidin-3-yl)oxy)phenyl)-N-methyl-N-(tetrahydro-2H-pyran-4-yl)methanesulfonamide], which “OX2R agonist activity (3 μM, %)” value is on record?
Its value is 45%.

Which “OX2R agonist activity (3 μM, %)” value does the source give for `CO[C@@H]1CN(C(=O)C2(c3ccccc3)CCC2)C[C@H]1Oc1cccc(CS(=O)(=O)N(C)C2CCOCC2)c1` (relative stereo) [Example 147, trans-1-(3-((4-methoxy-1-((1-phenylcyclobutyl)carbonyl)pyrrolidin-3-yl)oxy)phenyl)-N-methyl-N-(tetrahydro-2H-pyran-4-yl)methanesulfonamide] here?
Its value is 37%.
